Assay results published in ChEMBL document CHEMBL1201862, “PubChem BioAssay data set” (2004).
Activity calls are given as the source filed them.

Experiments:
[1] = tested on: Vero; test: Vero cell cytotoxicity, cytotoxicity control for flavivirus capping enzyme inhibitors (AID 588742); format: functional; conditions: Chlorocebus sabaeus
[2] = tested on: HeLa; test: HeLa cell cytotoxicity, dose response, cytotoxicity control for MITF activator project, CellTiter-Glo luminescence, cherry-pick samples (AID 540259); format: functional, cell-based; conditions: Homo sapiens
[3] = tested on: BJ; test: cytotoxicity toward BJ-TERT fibroblasts, dose response, cell-based, RAS-independent, luminescence (AID 1933); format: functional; conditions: Homo sapiens
[4] = tested on: Vero; test: cells; format: functional; conditions: Chlorocebus sabaeus
[5] = tested on: BJ; test: cytotoxicity toward Ras-transformed BJeLR fibroblasts, dose response, cell-based, alamar blue fluorescence, cherrypicked samples (AID 2631); format: functional; conditions: Homo sapiens;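 further: confirmatory dose-response assay in RAS-dependent BJ fibroblasts engineered with TERT, LT and ST, with cytotoxicity read by fluorescence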
[6] = cytotoxicity toward DRD oncogenic fibroblasts, dose response, cell-based, non-viral oncogenic, luminescence (AID 1934); format: functional; conditions: Homo sapiens
[7] = tested on: BJ; test: cells; format: functional, cell-based; conditions: Homo sapiens
[8] = tested on: BJ; test: cytotoxicity toward BJ-TERT-LT-ST fibroblasts, dose response, cell-based, RAS-independent, luminescence (AID 1935); format: functional; conditions: Homo sapiens;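 further: BJ fibroblasts immortalized with TERT plus LT and ST oncogenes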
[9] = tested on: Streptococcus; test: Group A Streptococcus viability loss, dose response, counter-screen for streptokinase expression inhibitor project, luminescence, BacTiterGlo (AID 1915); format: functional, organism-based; conditions: Streptococcus;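 further: potency for reduction of bacterial viability or growth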
[10] = molecular target: T1, Streptokinase A (Streptococcus pyogenes serotype M1, UniProt P10520); test: S. pyogenes streptokinase expression inhibitors, potency, dose response, plasminogen activation absorbance, OD405 (AID 1914); format: functional, Streptococcus pyogenes M1 GAS;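 further: secreted streptokinase activity via plasminogen activation per viability signal from cell pellet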
T1 sequence (P10520 whole entry): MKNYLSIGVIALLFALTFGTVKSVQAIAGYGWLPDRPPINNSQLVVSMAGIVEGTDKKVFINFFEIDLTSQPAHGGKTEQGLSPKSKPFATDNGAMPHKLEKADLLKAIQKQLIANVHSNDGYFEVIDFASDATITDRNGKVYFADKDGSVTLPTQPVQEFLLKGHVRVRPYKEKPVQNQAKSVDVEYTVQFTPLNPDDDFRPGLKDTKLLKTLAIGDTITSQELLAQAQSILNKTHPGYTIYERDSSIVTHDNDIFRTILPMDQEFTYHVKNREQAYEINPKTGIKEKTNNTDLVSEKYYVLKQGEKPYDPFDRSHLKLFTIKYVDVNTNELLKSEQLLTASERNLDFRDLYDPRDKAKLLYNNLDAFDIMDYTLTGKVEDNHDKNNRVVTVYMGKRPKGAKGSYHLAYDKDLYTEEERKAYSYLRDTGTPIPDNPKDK

[11] = tested on: Streptococcus sp. 'group A'; test: growth inhibition of control SK(-) GAS strain, dose response, counter-screen for streptokinase expression inhibitor project, luminescence, kanamycin, BacTiterGlo, confirmation (AID 1900); format: functional, organism-based; conditions: Streptococcus sp. 'group A'
[12] = molecular target: Dual specificity protein kinase CLK1 (Homo sapiens, UniProt P49759); test: CLK1 kinase inhibitors, off-target check, dose response, selectivity assay for Dyrk1A inhibitor project, biochemical, cherry-picked samples (AID 588811)
[13] = molecular target: Dual specificity tyrosine-phosphorylation-regulated kinase 1A (Rattus norvegicus, UniProt Q63470); format: biochemical, Homo sapiens
[14] = Luminescence Cell-Based Dose Confirmation HTS to Identify Inhibitors of Platelet Dense Granule Release. [Related pubchem assays: 1663 (Primary HTS), 1678 (Summary of Project)]; format: functional
[15] = molecular target: Beta-2 adrenergic receptor (Homo sapiens, UniProt P07550); test: beta2AR agonists driving receptor internalization, dose response, cell-based, FAP fluorogen, flow cytometry, cherry pick 1 (AID 588763); format: functional
[16] = molecular target: Luciferin 4-monooxygenase (Photinus pyralis, UniProt P08659); test: firefly luciferase enzyme inhibitors, dose response, biochemical, luminescence (AID 1891)
[17] = molecular target: T2, CAAX prenyl protease 2 (Homo sapiens, UniProt Q9Y256); test: human Rce1 protease inhibitors, dose response, biochemical, yeast membranes, quenched-peptide fluorescence, cherry-pick (AID 588849)
T2 sequence (Q9Y256 whole entry): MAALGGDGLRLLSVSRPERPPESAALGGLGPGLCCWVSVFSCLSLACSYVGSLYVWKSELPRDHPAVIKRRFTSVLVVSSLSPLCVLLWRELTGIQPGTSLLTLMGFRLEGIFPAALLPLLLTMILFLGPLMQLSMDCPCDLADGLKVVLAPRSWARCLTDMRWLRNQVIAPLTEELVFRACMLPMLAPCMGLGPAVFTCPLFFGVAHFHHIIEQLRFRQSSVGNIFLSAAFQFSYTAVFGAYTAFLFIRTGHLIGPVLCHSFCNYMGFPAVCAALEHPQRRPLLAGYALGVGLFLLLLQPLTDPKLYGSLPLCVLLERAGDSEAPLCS

[18] = molecular target: T3, Sentrin-specific protease 8 (Homo sapiens, UniProt Q96LD8); test: SENP8 protease inhibitors, SAR follow-up, biochemical, luminescence (AID 504501); format: functional
T3 sequence (Q96LD8 whole entry): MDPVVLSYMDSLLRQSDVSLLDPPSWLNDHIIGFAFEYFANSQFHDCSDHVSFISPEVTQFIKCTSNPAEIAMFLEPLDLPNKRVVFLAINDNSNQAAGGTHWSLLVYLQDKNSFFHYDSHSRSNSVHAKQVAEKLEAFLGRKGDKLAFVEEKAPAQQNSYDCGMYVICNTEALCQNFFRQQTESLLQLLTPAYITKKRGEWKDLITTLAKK

[19] = molecular target: T4, Sentrin-specific protease 6 (Homo sapiens, UniProt Q9GZR1); test: SAR Analysis of small molecule inhibitors of Sentrin-specific protease 6 (SENP6) using a Luminescent assay. [Related pubchem assays (depositor defined):AID2582, AID2599]; format: functional
T4 sequence (Q9GZR1 whole entry): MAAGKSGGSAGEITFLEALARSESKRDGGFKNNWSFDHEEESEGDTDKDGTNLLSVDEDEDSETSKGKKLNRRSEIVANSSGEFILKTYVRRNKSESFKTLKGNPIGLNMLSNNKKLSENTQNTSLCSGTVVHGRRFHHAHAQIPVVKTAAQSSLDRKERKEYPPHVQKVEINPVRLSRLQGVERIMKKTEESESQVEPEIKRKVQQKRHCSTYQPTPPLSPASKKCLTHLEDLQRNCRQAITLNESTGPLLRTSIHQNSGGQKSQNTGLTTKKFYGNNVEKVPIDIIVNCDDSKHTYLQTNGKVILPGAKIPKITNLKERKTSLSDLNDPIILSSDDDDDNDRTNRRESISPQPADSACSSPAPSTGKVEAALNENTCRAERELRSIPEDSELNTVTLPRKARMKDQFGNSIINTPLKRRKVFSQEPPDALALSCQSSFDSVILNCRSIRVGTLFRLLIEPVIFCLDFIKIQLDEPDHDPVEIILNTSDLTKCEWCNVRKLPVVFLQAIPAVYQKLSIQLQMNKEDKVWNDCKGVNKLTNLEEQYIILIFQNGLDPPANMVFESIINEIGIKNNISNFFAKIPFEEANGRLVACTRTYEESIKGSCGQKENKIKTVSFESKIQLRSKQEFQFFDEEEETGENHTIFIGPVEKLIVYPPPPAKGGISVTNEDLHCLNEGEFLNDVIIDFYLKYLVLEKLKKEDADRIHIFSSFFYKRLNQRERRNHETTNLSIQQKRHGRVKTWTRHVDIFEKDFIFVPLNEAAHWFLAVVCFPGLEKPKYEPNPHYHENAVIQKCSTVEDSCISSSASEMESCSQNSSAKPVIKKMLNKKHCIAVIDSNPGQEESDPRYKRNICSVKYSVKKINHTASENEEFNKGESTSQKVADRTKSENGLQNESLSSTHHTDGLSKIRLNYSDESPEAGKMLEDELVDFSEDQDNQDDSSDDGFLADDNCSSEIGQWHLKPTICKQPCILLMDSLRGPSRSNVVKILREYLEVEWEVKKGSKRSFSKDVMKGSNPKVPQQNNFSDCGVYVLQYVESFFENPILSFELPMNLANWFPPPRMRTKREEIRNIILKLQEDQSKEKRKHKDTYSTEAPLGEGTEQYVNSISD

[20] = molecular target: T5, Caspase-3 (Homo sapiens, UniProt P42574); test: SAR Analysis of small molecule inhibitors of Sentrin-specific proteases (SENPs) using a Caspase-3 Selectivity assay. [Related pubchem assays (depositor defined):AID2540, AID2599, AID434973, AID489001]; format: functional
T5 sequence (P42574 whole entry): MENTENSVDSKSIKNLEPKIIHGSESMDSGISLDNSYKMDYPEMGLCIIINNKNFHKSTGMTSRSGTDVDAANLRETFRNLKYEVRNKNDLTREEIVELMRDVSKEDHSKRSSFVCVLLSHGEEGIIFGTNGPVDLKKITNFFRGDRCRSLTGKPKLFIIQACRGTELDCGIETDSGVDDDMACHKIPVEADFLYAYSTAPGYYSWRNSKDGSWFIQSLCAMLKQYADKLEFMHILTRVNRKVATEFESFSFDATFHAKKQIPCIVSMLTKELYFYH

Sequence of Beta-2 adrenergic receptor (P07550 whole entry): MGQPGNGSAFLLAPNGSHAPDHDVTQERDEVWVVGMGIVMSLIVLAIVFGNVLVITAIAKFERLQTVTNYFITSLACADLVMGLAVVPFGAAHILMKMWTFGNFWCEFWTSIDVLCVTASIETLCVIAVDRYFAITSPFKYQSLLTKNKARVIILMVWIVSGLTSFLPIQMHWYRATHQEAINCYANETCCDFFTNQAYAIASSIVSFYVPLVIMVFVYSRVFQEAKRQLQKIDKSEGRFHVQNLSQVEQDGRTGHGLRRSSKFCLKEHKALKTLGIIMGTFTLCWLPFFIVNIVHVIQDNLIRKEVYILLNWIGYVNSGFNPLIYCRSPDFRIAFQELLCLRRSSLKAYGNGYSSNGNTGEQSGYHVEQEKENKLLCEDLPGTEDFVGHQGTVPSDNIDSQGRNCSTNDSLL
Sequence of Luciferin 4-monooxygenase (P08659 whole entry): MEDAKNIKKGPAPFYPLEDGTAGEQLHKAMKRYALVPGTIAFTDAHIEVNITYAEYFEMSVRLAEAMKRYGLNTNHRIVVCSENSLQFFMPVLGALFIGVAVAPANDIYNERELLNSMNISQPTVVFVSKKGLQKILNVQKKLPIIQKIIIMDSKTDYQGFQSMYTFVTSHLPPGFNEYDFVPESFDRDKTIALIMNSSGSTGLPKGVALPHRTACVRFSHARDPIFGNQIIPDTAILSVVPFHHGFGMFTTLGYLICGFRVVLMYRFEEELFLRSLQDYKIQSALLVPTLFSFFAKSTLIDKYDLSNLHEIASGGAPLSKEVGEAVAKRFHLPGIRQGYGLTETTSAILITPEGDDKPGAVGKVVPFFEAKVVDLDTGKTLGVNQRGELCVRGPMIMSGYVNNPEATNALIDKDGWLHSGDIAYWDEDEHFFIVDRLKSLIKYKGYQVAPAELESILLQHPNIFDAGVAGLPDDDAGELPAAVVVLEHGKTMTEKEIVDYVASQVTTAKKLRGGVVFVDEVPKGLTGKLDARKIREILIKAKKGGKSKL
Sequence of Dual specificity protein kinase CLK1 (P49759 whole entry): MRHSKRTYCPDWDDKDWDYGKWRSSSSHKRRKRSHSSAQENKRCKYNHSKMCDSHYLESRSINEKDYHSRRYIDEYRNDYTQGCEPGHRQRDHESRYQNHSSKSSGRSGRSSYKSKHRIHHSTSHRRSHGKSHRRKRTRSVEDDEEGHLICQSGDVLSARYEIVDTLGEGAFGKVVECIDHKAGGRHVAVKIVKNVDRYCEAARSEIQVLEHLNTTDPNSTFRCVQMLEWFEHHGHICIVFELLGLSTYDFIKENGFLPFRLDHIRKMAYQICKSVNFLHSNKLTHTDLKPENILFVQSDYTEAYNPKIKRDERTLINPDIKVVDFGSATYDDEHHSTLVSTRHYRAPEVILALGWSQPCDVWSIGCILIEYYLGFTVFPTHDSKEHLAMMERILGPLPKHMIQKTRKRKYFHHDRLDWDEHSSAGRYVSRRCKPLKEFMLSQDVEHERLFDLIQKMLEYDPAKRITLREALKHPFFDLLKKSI

In the case of `COc1cc(CNc2ccc(O)cc2)cc(Br)c1OCc1ccccc1F`, the CC50 [1] is reported as > 40 µM (active).

For `c1ccc2oc(-c3ccc4[nH]cnc4c3)nc2c1`, the AC50 [2] was 69.6 µM (active).

For `COc1ccc(/C=N\NC(=O)c2cccc(F)c2)cc1COc1ccccc1`, the EC50 [3] was 0.575 µM (inconclusive), the CC50 [4] was 0.35 µM (active) and the EC50 [5] was 0.286 µM (active). The EC50 [6] was 1.15 µM (active), the EC50 [7] was 31.5 µM (active) and the EC50 [8] was 5.12 µM (inconclusive).

With `O=C(Nc1nc(-c2ccc3c(c2)OCCO3)cs1)c1ccco1` the EC50 [9] was > 150 µM (not active), the EC50 [10] was > 150 µM (not active) and the EC50 [11] was 20.1 µM (active). The AC50 [12] was 3.98 µM (active) and the AC50 [13] was 6.45 µM (active).

With `COc1cc(OC)nc(NC(=O)CSc2nnc(-c3ccccc3)n2C2CCCCC2)n1` the EC50 [14] was > 112 µM (not active), the EC50 [15] was 1.05 µM (active) and the EC50 [16] was > 112 µM (not active).

In the case of `COc1ccc(N2C(=O)c3ccccc3NC23CCCCC3)cc1`, the AC50 [2] is reported as 300 µM (active).

For `CSc1ccc(/C=C/C(=O)OCC(=O)NC(C)C)cc1`, the AC50 [17] was 35.8 µM (active).

For `COc1ccccc1OCc1ccc(C(=O)Nc2ccccc2F)cc1`, the IC50 [18] was > 99 µM (inactive), the IC50 [19] was > 99 µM (inactive) and the IC50 [20] was 8.88 µM (active).
